These results are taken from patent US6277847A, “Herbicidal isoindolinonyl-and 3,4-dihydroisoquinolonyl-substituted heterocycles” (FMC Corporation, priority 2000, dated 2001).

Type in all cases: in vivo
Assay [1] concerns field corn (Zea mays var. Pioneer 3732). Nature of the assay: pre-emergence herbicidal activity, corn. Conditions: 1 kg/Ha, about fourteen days, read-out: pre-emergence herbicidal activity (% control) CRN. The gist of the method:
(§1)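 Seeds sown in flats of soil mix were sprayed pre-emergence with test compound in water/acetone at 1 kg/Ha. Flats were held about fourteen days beside untreated controls, then phytotoxicity was scored as percent control (0 = no effect, 100 = complete control).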

The test system of assay [2] is soybean (Glycine max -- var. Winchester). Nature of the assay: pre-emergence herbicidal activity, soybean. Conditions: 1 kg/Ha, about fourteen days, read-out: pre-emergence herbicidal activity (% control) SOY. The gist of the method:
as §1

In assay [3] the test system is green foxtail (Setaria viridis). Nature of the assay: pre-emergence herbicidal activity, green foxtail. Conditions: 1 kg/Ha, about fourteen days, read-out: pre-emergence herbicidal activity (% control) SETVI. The gist of the method: as §1
The test system of assay [4] is soybean (Glycine max -- var. Winchester). Kind of assay: post-emergence herbicidal activity, soybean. Conditions: 1 Kg/Ha, about fourteen days, read-out: post-emergence herbicidal activity (% control) SOY. The gist of the method:
(§2)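 Application rate was 1 Kg/Ha, sprayed post-emergence from a water/acetone solution onto flat-grown plants. Injury is expressed as percent control, 100 meaning complete control, assessed roughly two weeks later.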

Assay [5] relates to field corn (Zea mays var. Pioneer 3732). Nature of the assay: post-emergence herbicidal activity, corn. Conditions: 1 Kg/Ha, about fourteen days, read-out: post-emergence herbicidal activity (% control) CRN. The gist of the method:
as §2

Assay [6] deals with wheat (Triticum aestivum var. Lew). Kind of assay: pre-emergence herbicidal activity, wheat. Conditions: 1 kg/Ha, about fourteen days, read-out: pre-emergence herbicidal activity (% control) WHT. The gist of the method:
as §1

For assay [7], the system named is Johnsongrass (Sorghum halepense). Nature of the assay: post-emergence herbicidal activity, johnsongrass. Conditions: 1 Kg/Ha, about fourteen days, read-out: post-emergence herbicidal activity (% control) SORHA. The essentials:
as §2

The test system of assay [8] is morningglory (Ipomea lacunosa or Ipomea hederacea). Nature of the assay: post-emergence herbicidal activity, morningglory. Conditions: Ipomoea, 1 Kg/Ha, about fourteen days, read-out: post-emergence herbicidal activity (% control) IPOSS. The gist of the method:
as §2

Assay [9] deals with velvetleaf (Abutilon theophrasti). Kind of assay: pre-emergence herbicidal activity, velvetleaf. Conditions: 1 kg/Ha, about fourteen days, read-out: pre-emergence herbicidal activity (% control) ABUTH. The gist of the method: as §1
For assay [10], the system named is common cocklebur (Xanthium strumarium L.). Kind of assay: post-emergence herbicidal activity, cocklebur. Conditions: 1 Kg/Ha, about fourteen days, read-out: post-emergence herbicidal activity (% control) XANPE. The gist of the method: as §2
For assay [11], the system named is green foxtail (Setaria viridis). Kind of assay: post-emergence herbicidal activity, green foxtail. Conditions: 1 Kg/Ha, about fourteen days, read-out: post-emergence herbicidal activity (% control) SETVI. The gist of the method: as §2
Assay [12] has as its system morningglory (Ipomea lacunosa or Ipomea hederacea). Kind of assay: pre-emergence herbicidal activity, morningglory. Conditions: Ipomoea, 1 kg/Ha, about fourteen days, read-out: pre-emergence herbicidal activity (% control) IPOSS. The gist of the method:
as §1

Assay [13] deals with velvetleaf (Abutilon theophrasti). Kind of assay: post-emergence herbicidal activity, velvetleaf. Conditions: 1 Kg/Ha, about fourteen days, read-out: post-emergence herbicidal activity (% control) ABUTH. The gist of the method:
as §2

Assay [14] relates to common cocklebur (Xanthium strumarium L.). Kind of assay: pre-emergence herbicidal activity, cocklebur. Conditions: 1 kg/Ha, about fourteen days, read-out: pre-emergence herbicidal activity (% control) XANPE. The gist of the method:
as §1

Assay [15] deals with common chickweed (Stellaria media). Nature of the assay: pre-emergence herbicidal activity, chickweed. Conditions: 1 kg/Ha, about fourteen days, read-out: pre-emergence herbicidal activity (% control) STEME. The gist of the method: as §1
In assay [16] the test system is Johnsongrass (Sorghum halepense). Kind of assay: pre-emergence herbicidal activity, johnsongrass. Conditions: 1 kg/Ha, about fourteen days, read-out: pre-emergence herbicidal activity (% control) SORHA. The essentials: as §1
Assay [17] relates to common chickweed (Stellaria media). Kind of assay: post-emergence herbicidal activity, chickweed. Conditions: 1 Kg/Ha, about fourteen days, read-out: post-emergence herbicidal activity (% control) STEME. The gist of the method: as §2
The test system of assay [18] is blackgrass (Aloepecurus myosuroides). Kind of assay: post-emergence herbicidal activity, blackgrass. Conditions: Alopecurus myosuroides, 1 Kg/Ha, about fourteen days, read-out: post-emergence herbicidal activity (% control) ALOMY. The gist of the method: as §2
For assay [19] the test system is unchanged. Kind of assay: pre-emergence herbicidal activity, blackgrass. Conditions: Alopecurus myosuroides, 1 kg/Ha, about fourteen days, read-out: pre-emergence herbicidal activity (% control) ALOMY. The gist of the method:
as §1

In assay [20] the test system is wheat (Triticum aestivum var. Lew). Nature of the assay: post-emergence herbicidal activity, wheat. Conditions: 1 Kg/Ha, about fourteen days, read-out: post-emergence herbicidal activity (% control) WHT. The essentials:
as §2

With `Cn1c(C(F)(F)F)cc(=O)n(-c2c(Cl)cc(Cl)c3c2CN(C(C)(C)C)C3=O)c1=O` [Compound 6], the activity at 1000 g/ha in assay [1] came to 100%; in [2], 100%; in assay [3], 100%; in [4], 90%; in [5], 100%; in assay [6], 100%. The activity at 1000 g/ha in assay [7] came out at 100%; in assay [8], 95%; in [9], 100%; in assay [10], 100%; in assay [11], 100%; in assay [12], 100%. Further, the activity at 1000 g/ha in assay [13], in [14], in assay [15], in [16], in assay [17] and in assay [18] was 100% throughout. The activity at 1000 g/ha in [19] came out at 100%; in [20], 80%.
